Assay results as given in patent US20200093789A1, “Cancer Treatment with a CXCL12 Signaling Inhibitor and an Immune Checkpoint Inhibitor” (The General Hospital Corporation, priority 2017, published 2020).
“Also recorded” adds a separate entry of the source.

How the values were obtained:
ID8 tumor bearing mice = assay: Survival of ID8 tumor bearing mice (AMD3100/checkpoint inhibitor combination study); type: in vivo, C57BL/6 mice; conditions: vs saline treated control; AMD3100 3 mg/kg IP every other day for three weeks alternating with αPD-1 or αPD-L1 200 μg/mouse IP; Log-rank test
Experimental: Luciferase-expressing ID-8 ovarian cancer cells (3×10^6 cells) were injected into C57BL/6 female mice (30/group). […] Starting three weeks post tumor inoculation, AMD3100 (3 mg/kg) was injected IP every other day for three weeks alternating with αPD-1 or αPD-L1 (200 μg/mouse) by IP injection.
Tissue Culture: The ID8 ovarian cancer cells, a kind gift from Kathy Roby (University of Kansas Medical Center, Kansas City, Kans.), were transfected with luciferase lentiviral vector and a clone stably expressing luciferase was recovered, here named Luc-ID8. Cells were maintained at 37° C. in DMEM with 2 mmol/L L-glutamine, 10 units/ml penicillin, 10 μg/ml streptomycin, and 10% fetal bovine serum in a humidified atmosphere with 5% CO2. Cells were cultured until 80% confluent, then harvested with Trypsin EDTA (Mediatech) for animal injections.
Treatment Agents: AMD3100 was purchased from Abcam. 10 mg power was dissolved in 16.7 ml saline to achieve concentration of 0.6 mg/ml and 100 μl was injected for each treatment. Anti-mouse PD-1 and anti-mouse PD-L1 were purchased from Biocell. […]

[1] = system: tumor-infiltrated lymphocytes; assay: Flow cytometry immune profiling of tumor-infiltrating lymphocytes from ID8 tumors a week after the last treatment; type: in vivo, C57BL/6 mice; conditions: vs saline control
Experimental: Luciferase-expressing ID-8 ovarian cancer cells (3×10^6 cells) were injected into C57BL/6 female mice (30/group). Tumor initiation was confirmed 20 days later by IVIS imaging, and tumor-bearing animals were randomized into the treatment groups indicated in Table 2. Starting three weeks post tumor inoculation, AMD3100 (3 mg/kg) was injected IP every other day for three weeks alternating with αPD-1 or αPD-L1 (200 μg/mouse) by IP injection. 3 mg/kg AMD3100 is the murine equivalent of the approved human dose of 0.24 mg/kg based on allometric scaling.
Some animals from each treatment group were euthanized by i.p. administration of Ketamine (9 mg/ml in saline) and Xylazine (0.9 mg/ml in saline) a week after the last treatment for evaluation of tumor-infiltrating lymphocytes. Tumors were harvested and processed for immune profiling.
Flow cytometry: Tumors were mechanically disaggregated using razor blades, and cells were further separated by incubation at 37° C. for 2 hours in RPMI 1640 with collagenase type IV (2 mg/ml, Sigma), hyaluronidase (0.1 mg/ml, Sigma), and BSA (2 mg/ml, Sigma). Cell suspensions were passed through 100 μm filters to remove any remaining aggregates. Cells were washed with staining buffer (Biolegend) and stained with conjugated antibodies. All live cells were determined by the LIVE/DEAD® staining (ThermoFisher). Intracellular protein detection was realized by fixation/permeabilization reagents from BioLegend or eBioscience. Flow cytometry were performed using BD LSRFortessa X-20 (BD Biosciences) and data were analyzed by FlowJo V10.
Assessment of Results: Prism 6.0 software (GraphPad Software) was used for all statistical analyses. Statistical differences between three or more experimental groups were analyzed using Two-Way ANOVA, followed by Tukey's multiple comparison tests or Student T tests. Survival was analyzed with the Log-rank test.

[2] = system: intratumoral FoxP3+ regulatory T cells (Treg); conditions: literature statement; cited from earlier work
[3] = percentage of total CD8+ T cells in tumors

## c1cc(CN2CCCNCCNCCCNCC2)ccc1CN1CCCNCCNCCCNCC1 [AMD3100, AMD3100 (plerixafor)]
ID8 tumor bearing mice
  survival time of ID8 tumor bearing mice: significantly extended
[1]; in tumors
  proportions of CD40L+IL-2+ cells in CD4+FoxP3+CD25− population (helper-like T cells): significantly increased; also recorded: promoted replacement of Tregs by helper T cells
[1]; percent of total CD4+ T cells in tumors
  proportions of intratumor Tregs: significantly reduced; also recorded: decreased
[1]; [3]
  IFN-γ expression in intratumor CD8+ T cells: significantly increased; also recorded: enhanced
  intratumor CD8+ memory T cells (CD27+CD44+ population in TILs): significantly increased
[2]
  levels of intratumoral FoxP3+ regulatory T cells (Treg): can be reduced
